Structures are written as SMILES.

This experiment has as its target Heat shock protein HSP 90-alpha (Homo sapiens) (UniProt P07900). The experiment can be described thus: inhibition of human Hsp90, late-stage follow-up, biochemical, luminescence (AID 2748). The following applies: Hsp90 biochemical assay, luminescence read-out.
Take `CCc1ccc(OCc2ccc(C(=O)OC)o2)cc1`: the half-maximal inhibitory concentration (IC50) (usually the point on the concentration scale where inhibition reaches its midpoint) is 1030 nM.

As for `COc1ccccc1NC(=O)c1coc(=O)c(Br)c1`, the half-inhibitory concentration (IC50) was 457 nM.

On to `Cc1cc(NO)nc(-c2ccc(Br)cc2)n1`, for which the IC50 was 871 nM.

As to `CCOC(=O)c1csc(NC(=O)c2cc3ccccc3o2)n1`, the IC50 was 878 nM.

Turning to `Cc1c(-c2nc(-c3ccc(C(F)(F)F)cc3)no2)n(C)oc1=O`, the half-inhibitory concentration (IC50) was 1600 nM.

For `CCOC(=O)C1=C(c2ccc(OC)cc2)C(=O)c2ccccc2C1=O`, the half-inhibitory concentration (IC50) is 308 nM.

For `Cc1c(-c2nc(-c3ccc(C(C)(C)C)cc3)no2)n(C)oc1=O`, the 50% inhibitory concentration (IC50) was < 3 nM.

As to `COc1cc(C=NNc2ccc(Cl)c(C(=O)O)c2)ccc1OC(=O)c1ccc(F)cc1`, the IC50 was 1820 nM.

Turning to `CC(=O)Nc1ccccc1OCC(=O)c1cc(C)n(Cc2cccs2)c1C`, the IC50 was 100 nM.

The record behind these values is PubChem BioAssay AID2748 (The Scripps Research Institute Molecular Screening Center, 2010).
